What was measured:
Format in all cases: cell-based
ADRA1A [1] = assay: ADRA1A agonist and antagonist validation in Hek293 APPwt cells, amyloid beta ELISA
Text: (§1) To identify novel drug targets that change the APP processing, stable cell lines over expressing APP are made by transfecting Hek293 or SH-SY5Y cells with APP770 wt cDNA cloned into pcDNA3.1, followed by selection with G418 for 3 weeks. At this time point colonies are picked and stable clones are expanded and tested for their secreted amyloid-beta peptide levels. The cell lines designated as “Hek293 APPwt” and “SH-SY5Y APPwt” are used in the assays.
Hek293 APPwt Assay: Cells seeded in collagen-coated plates at a cell density of 15000 cells/well (384 well plate) in DMEM (10% FBS), are infected 24 h later with 1 μl or 0.2 μl of adenovirus (corresponding to an average multiplicity of infection (MOI) of 120 and 24 respectively). The following day, the virus is washed away and DMEM (25 mM Hepes; 10% FBS) is added to the cells. Amyloid-beta peptides are allowed to accumulate during 24 h.
(§2) ELISA: The ELISA plate is prepared by coating with a capture antibody (JRF/cAbeta42/26) (the antibody recognizes a specific epitope on the C-terminus of Abeta 1-42; obtained from M Mercken, Johnson and Johnson Pharmaceutical Research and Development, B-2340 Beerse, Belgium) overnight in buffer 42 (Table 2) at a concentration of 2.5 μg/ml. The excess capture antibody is washed away the next morning with PBS and the ELISA plate is then blocked overnight with casein buffer (see Table 2) at 4° C. Upon removal of the blocking buffer, 30 μl of the sample is transferred to the ELISA plate and incubated overnight at 4° C. After extensive washing with PBS-Tween20 and PBS, 30 μl of the horseradish peroxidase (HRP) labeled detection antibody (Peroxidase Labeling Kit, Roche), JRF/AbetaN/25-HRP (obtained from M Mercken, Johnson and Johnson Pharmaceutical Research and Development, B-2340 Beerse, Belgium) is diluted 1/5000 in buffer C (see Table 2) and added to the wells for another 2 h. Following the removal of excess detection antibody by a wash with PBS-Tween20 and PBS, HRP activity is detected via addition of luminol substrate (Roche), which is converted into a chemiluminescent signal by the HRP enzyme.
In addition, for the SH-SY5Y APPwt assay, the samples are also analyzed in an amyloid beta x-42 ELISA. This ELISA detects all amyloid beta peptide species ending at position 42, comprising 1-42, 11-42 and 17-42 (p3), which originate respectively from BACE activity at position 1 and 11, and alpha secretase activity at position 17. Thus, in addition to the amyloidogenic pathway, the non-amyloidogenic pathway is also monitored. The protocol for the Abeta x-42 ELISA is identical to the protocol for the Abeta 1-42 ELISA, except that a HRP labeled 4G8 antibody (Signet; the antibody recognizes a specific epitope in the center of the Abeta peptides) is used as detection antibody. […]

ADRA1A [2] = assay: ADRA1A agonist and antagonist validation in SH-SY5Y APPwt cells, amyloid beta ELISA
Experimental: as §1
SH-SY5Y APPwt Assay: Cells are seeded in collagen-coated plates at a cell density of 15000 cells/well (384 well plate) in Dulbecco's MEM with Glutamax I+15% FBS HI+non-essential amino acids+Geneticin 500 μg/ml. The cells are differentiated towards the neuronal phenotype by adding 9-cis retinoic acid to a final concentration of 1 μM on day 1, day 3, day 5 and day 8. On day 9, the cells are infected with 1 μl of adenovirus (corresponding to an average multiplicity of infection (MOI) of 120 respectively). The following day, the virus is washed away and DMEM 25 mM Hepes 10% FBS is added to the cells. Amyloid beta peptides are allowed to accumulate for 24 h.
as §2
In addition, for the SH-SY5Y APPwt assay, the samples are also analyzed in an amyloid beta x-42 ELISA. This ELISA detects all amyloid beta peptide species ending at position 42, comprising 1-42, 11-42 and 17-42 (p3), which originate respectively from BACE activity at position 1 and 11, and alpha secretase activity at position 17. Thus, in addition to the amyloidogenic pathway, the non-amyloidogenic pathway is also monitored. […]

TACR1 = TACR1 (Homo sapiens, UniProt P25103); assay: TACR1 agonist and antagonist validation in Hek293 APPwt cells, amyloid beta ELISA; settings: Hek293 APPwt cells infected with Ad5/TACR1_v1
TACR1, sequence (P25103 whole entry): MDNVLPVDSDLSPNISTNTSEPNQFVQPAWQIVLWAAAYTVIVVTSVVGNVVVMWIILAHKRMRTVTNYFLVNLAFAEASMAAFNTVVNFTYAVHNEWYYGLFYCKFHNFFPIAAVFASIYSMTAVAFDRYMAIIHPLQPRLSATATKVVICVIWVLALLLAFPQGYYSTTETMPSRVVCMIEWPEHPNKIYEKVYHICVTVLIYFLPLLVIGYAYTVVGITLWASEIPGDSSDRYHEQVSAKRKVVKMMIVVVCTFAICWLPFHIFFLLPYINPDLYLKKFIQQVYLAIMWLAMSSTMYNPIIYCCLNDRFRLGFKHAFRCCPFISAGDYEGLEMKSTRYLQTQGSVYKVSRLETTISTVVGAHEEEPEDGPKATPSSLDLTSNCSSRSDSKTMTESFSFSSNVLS
Experimental: ELISA: The ELISA plate is prepared by coating with a capture antibody (JRF/cAbeta42/26) (the antibody recognizes a specific epitope on the C-terminus of Abeta 1-42; obtained from M Mercken, Johnson and Johnson Pharmaceutical Research and Development, B-2340 Beerse, Belgium) overnight in buffer 42 (Table 2) at a concentration of 2.5 μg/ml. The excess capture antibody is washed away the next morning with PBS and the ELISA plate is then blocked overnight with casein buffer (see Table 2) at 4° C. Upon removal of the blocking buffer, 30 μl of the sample is transferred to the ELISA plate and incubated overnight at 4° C. […]
In addition, for the SH-SY5Y APPwt assay, the samples are also analyzed in an amyloid beta x-42 ELISA. […] Thus, in addition to the amyloidogenic pathway, the non-amyloidogenic pathway is also monitored. […]

[3] = Hek293 APPwt cells infected with Ad5/ADRA1A_v1, increasing amounts of agonist, 24 h, concentration dependent
[4] = SH-SY5Y APPwt cells infected with Ad5/ADRA1A_v1, increasing amounts of agonist, 24 h, concentration dependent

Br.CS(=O)(=O)Nc1c(O)ccc2c1CCCC2C1=NCCN1 (stereo not shown) [A61603]
amount of amyloid beta 1-42 secreted in the medium (ADRA1A [1]; [3]): decreased
amount of amyloid beta x-42 secreted in the medium (ADRA1A [1]; [3]): increased
amount of amyloid beta 1-42 secreted in the medium (ADRA1A [2]; [4]): increased
amount of amyloid beta x-42 secreted in the medium (ADRA1A [2]; [4]): increased

Cl.FC(F)(F)c1cc(CO[C@H]2CCCN[C@H]2c2ccccc2)cc(C(F)(F)F)c1 [L-733,060 hydrochloride]
observed Substance P EC50 values with increasing concentration of the antagonist (TACR1; amyloid beta x-42 ELISA, 0.1, 1 and 10 μM antagonist): increased
amount of amyloid beta x-42 secreted in the medium (TACR1; substance P plus fixed 0.1, 1 and 10 μM antagonist, 24 h, concentration dependent): reduces

CC(C)(Cc1c[nH]c2ccc(Cl)cc12)NCCOc1ccccc1OCC1CC1.Cl [RS-17053 hydrochloride]
amount of amyloid beta x-42 secreted in the medium (ADRA1A [1]; Hek293 APPwt cells infected with Ad5/ADRA1A_v1, A61603 plus fixed 0.1 and 1 μM antagonist, 24 h, concentration dependent): reduced
observed EC50 values (agonist A61603) with increasing concentration of the antagonist (ADRA1A [1]; Hek293 APPwt cells, amyloid beta x-42 ELISA, 0.1 and 1 μM antagonist): increased
amount of amyloid beta 1-42 secreted in the medium (ADRA1A [2]; SH-SY5Y APPwt cells infected with Ad5/ADRA1A_v1, A61603 plus fixed 0.1 and 1 μM antagonist, 24 h, concentration dependent): reduced
observed EC50 values (agonist A61603) with increasing concentration of the antagonist (ADRA1A [2]; SH-SY5Y APPwt cells, amyloid beta 1-42 ELISA, 0.1 and 1 μM antagonist): increased

Reference: US20050287565A1, “Methods, compositions and compound assays for inhibiting amyloid-beta protein production” (priority 2004, published 2005)
